“And” between values parts separate entries of the source, which are not always exact repeats. Equal entries are not always repeated. Toxic doses and inconclusive results are not listed.
System: B6C3F1 mice, B16 melanoma ip, median survival T/C
Experiment: NCI In Vivo Anticancer Drug Screen. Data for tumor model B16 Melanoma (intraperitoneal) in B6C3F1 mice
Conditions: endpoint: median survival time, higher = longer survival
Outline: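 Values are T/C ratios: the measurement in treated animals divided by that in vehicle-treated controls, using survival or tumor size in mice carrying transplantable tumors.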

[1] = dose: 25.0 mg/kg/injection, schedule: Q01DX009 (ip), vehicle: saline with Tween-80
[2] = dose: 50.0 mg/kg/injection, schedule: Q01DX009 (ip), vehicle: saline with Tween-80
[3] = dose: 400.0 mg/kg/injection, schedule: Q01DX009 (ip), vehicle: saline with Tween-80
[4] = dose: 12.5 mg/kg/injection, schedule: Q01DX009 (ip), vehicle: saline with Tween-80
[5] = dose: 1.56 mg/kg/injection, schedule: Q01DX009 (ip), vehicle: saline with Tween-80
[6] = dose: 6.25 mg/kg/injection, schedule: Q01DX009 (ip), vehicle: saline with Tween-80
[7] = dose: 3.12 mg/kg/injection, schedule: Q01DX009 (ip), vehicle: saline with Tween-80
[8] = dose: 12.5 mg/kg/injection, schedule: Q01DX009 (ip), vehicle: saline
[9] = dose: 25.0 mg/kg/injection, schedule: Q01DX009 (ip), vehicle: saline
[10] = dose: 50.0 mg/kg/injection, schedule: Q01DX009 (ip), vehicle: saline
[11] = dose: 6.25 mg/kg/injection, schedule: Q01DX009 (ip), vehicle: Klucel (hydroxypropylcellulose) (HPC)
[12] = dose: 12.5 mg/kg/injection, schedule: Q01DX009 (ip), vehicle: Klucel (hydroxypropylcellulose) (HPC)
[13] = dose: 25.0 mg/kg/injection, schedule: Q01DX009 (ip), vehicle: Klucel (hydroxypropylcellulose) (HPC)

Structure (SMILES): COc1cccc2c1C(=O)c1c(O)c3c(c(O)c1C2=O)C[C@](O)(C(=O)CO)CC3OC1CC(N)C(OC2CCCCO2)C(C)O1 (stereo partly drawn)
- T/C (dose: 1.5 mg/kg/injection, schedule: Q01DX009 (ip), vehicle: water): 382 % of control
- T/C (dose: 1.56 mg/kg/injection, schedule: Q01DX001 (ip), vehicle: water): 172 % of control
- T/C (dose: 3.12 mg/kg/injection, schedule: Q01DX001 (ip), vehicle: water): 206 % of control and 218 % of control
- T/C (dose: 6.25 mg/kg/injection, schedule: Q01DX001 (ip), vehicle: water): 222 % of control and 317 % of control
- T/C (dose: 12.5 mg/kg/injection, schedule: Q01DX001 (ip), vehicle: water): 229 % of control and 264 % of control

Structure (SMILES): CC(=O)Nc1cscc1NC(C)=O
- T/C [1]: 94 % of control and 102 % of control
- T/C [2]: 111 % of control and 100 % of control
- T/C (dose: 100.0 mg/kg/injection, schedule: Q01DX009 (ip), vehicle: saline with Tween-80): 94 % of control
- T/C (dose: 200.0 mg/kg/injection, schedule: Q01DX009 (ip), vehicle: saline with Tween-80): 108 % of control and 99 % of control
- T/C [3]: 96 % of control and 104 % of control

Structure (SMILES): COP12(OCCO1)SC(C(F)(F)F)=C(C(F)(F)F)S2
- T/C [4]: 100 % of control
- T/C [1]: 96 % of control
- T/C [2]: 104 % of control

Structure (SMILES): C[C@H](CCC[C@H](C)OS(=O)(=O)c1ccccc1)OS(=O)(=O)c1ccccc1
- T/C [4]: 122 % of control and 101 % of control
- T/C [1]: 207 % of control and 97 % of control
- T/C [3]: 194 % of control

Structure (SMILES): O=C(O)CCCc1ccc(N(CCCl)CCCl)cc1
- T/C [5]: 113 % of control and 106 % of control
- T/C (dose: 3.13 mg/kg/injection, schedule: Q01DX009 (ip), vehicle: saline with Tween-80): 119 % of control and 103 % of control
- T/C [6]: 118 % of control
- T/C [4]: 98 % of control and 106 % of control

Structure (SMILES): C/C=C/c1cc2n(c1)C(=O)c1cc(OC3OC(C)C(NC)C(C)(O)C3O)c(C)c(O)c1NC2O (stereo not drawn)
- T/C (dose: 0.25 micrograms/kg/injection, schedule: Q01DX009 (ip), vehicle: saline): 106 % of control
- T/C (dose: 2.0 micrograms/kg/injection, schedule: Q04DX003 (ip), vehicle: DMSO): 114 % of control

Structure (SMILES): O=C(Nc1ccc(C2=NCCN2)cc1)c1ccc(C(=O)Nc2ccc(C3=NCCN3)cc2)c(Cl)c1
- T/C [5]: 105 % of control
- T/C (dose: 1.56 mg/kg/injection, schedule: Q01DX009 (ip), vehicle: saline): 115 % of control
- T/C [7]: 98 % of control
- T/C (dose: 3.12 mg/kg/injection, schedule: Q01DX009 (ip), vehicle: saline): 89 % of control
- T/C [6]: 100 % of control
- T/C (dose: 6.25 mg/kg/injection, schedule: Q01DX009 (ip), vehicle: saline): 100 % of control
- T/C [4]: 93 % of control
- T/C [8]: 93 % of control
- T/C [1]: 110 % of control
- T/C [9]: 94 % of control
- T/C [2]: 110 % of control
- T/C [10]: 99 % of control

Structure (SMILES): CC(C)NC(=O)N(CCCCBr)N=O
- T/C [11]: 98 % of control
- T/C (dose: 12.0 mg/kg/injection, schedule: Q01DX009 (ip), vehicle: Klucel (hydroxypropylcellulose) (HPC)): 118 % of control
- T/C [12]: 98 % of control and 102 % of control
- T/C [13]: 99 % of control and 102 % of control
- T/C (dose: 50.0 mg/kg/injection, schedule: Q01DX009 (ip), vehicle: Klucel (hydroxypropylcellulose) (HPC)): 116 % of control and 106 % of control
- T/C (dose: 100.0 mg/kg/injection, schedule: Q01DX009 (ip), vehicle: Klucel (hydroxypropylcellulose) (HPC)): 88 % of control and 96 % of control
- T/C (dose: 200.0 mg/kg/injection, schedule: Q01DX009 (ip), vehicle: Klucel (hydroxypropylcellulose) (HPC)): 102 % of control

Structure (SMILES): Nc1cc2c3c(cccc3c1)C(=O)N(CCN1CCCC1)C2=O
- T/C [7]: 113 % of control and 106 % of control
- T/C [6]: 97 % of control and 98 % of control
- T/C [4]: 115 % of control and 107 % of control
- T/C [2]: 122 % of control

Structure (SMILES): C=C1CCC2C(c3c(C)c(O)c4c(c31)C(=O)C(C)C4)C2(C)C (stereo not drawn)
- T/C (dose: 3.13 mg/kg/injection, schedule: Q01DX009 (ip), vehicle: Klucel (hydroxypropylcellulose) (HPC)): 102 % of control
- T/C [11]: 89 % of control
- T/C [12]: 95 % of control
- T/C [13]: 89 % of control

Structure (SMILES): NC1=NC(=O)N2CC12 (stereo not drawn)
- T/C [8]: 105 % of control
- T/C [9]: 95 % of control
- T/C [10]: 95 % of control
- T/C (dose: 100.0 mg/kg/injection, schedule: Q01DX009 (ip), vehicle: saline): 89 % of control

Source: PubChem BioAssay AID200 (DTP/NCI, 2004)
